# Reference: patent publication US20050137130A1, “Medical treatment” (priority 2001, published 2005)
# How the values were obtained:
# [1] = tested on: Notch signalling from Delta (A20-Delta cells, mouse Delta1); test: Antagonism of A20-Delta Notch signalling (N27#11 luciferase reporter); assay type: cell-based; conditions: A20-Delta cells 1×10^5 per well; IgG4 as control
# Description: The IVS, IRES, Neo and pA elements were removed from plasmid pIRESneo2 (Clontech, USA) and inserted into a pUC cloning vector downstream of a chicken beta-actin promoter (eg see GenBank Accession No E02199). Mouse Delta-1 cDNA (eg see GenBank Accession No NM_007865) was inserted between the actin promoter and IVS elements and a sequence with multiple stop codons in all three reading frames was inserted between the Delta and IVS elements.
# The resulting construct was transfected into A20 cells using electroporation and G418 to provide A20 cells expressing mouse Delta1 on their surfaces (A20-Delta).
# The procedure of Example was repeated using A20-Delta or A20-Jagged cells (1×10^5 per well) in place of CHO-Delta cells. IgG4 was used as a control.
# [2] = tested on: Mouse CD4+T-cells; test: ELISA assay for Notch signalling modulator activity in mouse CD4+ cells (IL-10, plate-bound hDelta1-IgG4Fc); assay type: cell-based; conditions: all concentrations tested, added at start of culture, day 3
# Procedure: Spleens were removed from female Balb/c mice 8-10 weeks old and passed through a […] cell strainer into 20 ml R10F medium (R10F-RPMI 1640 media (Gibco Cat No 22409) plus 2 mM L-glutamine, 50 μg/ml Penicillin, 50 μg/ml Streptomycin, 5×10^−5 M β-mercapto-ethanol in 10% fetal calf serum). The cell suspension was spun (1150 rpm 5 min) and the media removed.
# The cells were incubated for 4 minutes with 5 ml ACK lysis buffer (0.15M NH4Cl, […], O. 1 mM Na2EDTA in double distilled water) per spleen (to lyse red blood cells). The cells were then washed once with R10F medium and counted. CD4+ cells were purified from the suspensions by positive selection on a Magnetic Associated Cell Sorter (MACS) column (Miltenyi Biotec, Bisley, UK: Cat No 130-042-401) using CD4 (L3T4) beads (Miltenyi Biotec Cat No 130-049-201), according to the manufacturer's directions. […]
# Mouse CD4+T-cells (prepared as above) were cultured at 2×10^5/well on anti-CD3 coated plates with or without plate-bound hDelta1-IgG4Fc fusion protein (prepared as described above) and soluble anti-CD28. […] Soluble hDelta1-IgG4Fc fusion protein was added into culture at the start at the concentrations shown and IL-10 was measured in supernatants on day 3 by ELISA using antibody pairs from R & D Systems (Abingdon, UK).
substance,measurement,setting,value
hDelta1-IgG4Fc: fusion protein comprising the extracellular domain of human Delta1 fused to the Fc domain of human IgG4 (SEQ ID NO: 5),inhibition of Notch signalling from Delta,[1],able to inhbit Notch signalling
same,effect of soluble protein on increased IL-10 release induced by plate-bound hDelta1-IgG4Fc,[2],substantially reversed
